Molecules are shown by their SMILES.

T1 sequence (P50750 whole entry): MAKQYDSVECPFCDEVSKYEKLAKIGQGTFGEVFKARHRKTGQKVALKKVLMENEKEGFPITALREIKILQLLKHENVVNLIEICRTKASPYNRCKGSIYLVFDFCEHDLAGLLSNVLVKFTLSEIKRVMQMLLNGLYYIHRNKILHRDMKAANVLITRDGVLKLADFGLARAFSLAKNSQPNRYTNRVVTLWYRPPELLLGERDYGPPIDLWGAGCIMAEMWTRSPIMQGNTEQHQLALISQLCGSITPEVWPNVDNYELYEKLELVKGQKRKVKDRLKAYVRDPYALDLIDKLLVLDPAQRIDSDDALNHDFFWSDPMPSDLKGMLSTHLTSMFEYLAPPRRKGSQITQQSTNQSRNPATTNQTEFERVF
T1 sequence (O60563 whole entry partner): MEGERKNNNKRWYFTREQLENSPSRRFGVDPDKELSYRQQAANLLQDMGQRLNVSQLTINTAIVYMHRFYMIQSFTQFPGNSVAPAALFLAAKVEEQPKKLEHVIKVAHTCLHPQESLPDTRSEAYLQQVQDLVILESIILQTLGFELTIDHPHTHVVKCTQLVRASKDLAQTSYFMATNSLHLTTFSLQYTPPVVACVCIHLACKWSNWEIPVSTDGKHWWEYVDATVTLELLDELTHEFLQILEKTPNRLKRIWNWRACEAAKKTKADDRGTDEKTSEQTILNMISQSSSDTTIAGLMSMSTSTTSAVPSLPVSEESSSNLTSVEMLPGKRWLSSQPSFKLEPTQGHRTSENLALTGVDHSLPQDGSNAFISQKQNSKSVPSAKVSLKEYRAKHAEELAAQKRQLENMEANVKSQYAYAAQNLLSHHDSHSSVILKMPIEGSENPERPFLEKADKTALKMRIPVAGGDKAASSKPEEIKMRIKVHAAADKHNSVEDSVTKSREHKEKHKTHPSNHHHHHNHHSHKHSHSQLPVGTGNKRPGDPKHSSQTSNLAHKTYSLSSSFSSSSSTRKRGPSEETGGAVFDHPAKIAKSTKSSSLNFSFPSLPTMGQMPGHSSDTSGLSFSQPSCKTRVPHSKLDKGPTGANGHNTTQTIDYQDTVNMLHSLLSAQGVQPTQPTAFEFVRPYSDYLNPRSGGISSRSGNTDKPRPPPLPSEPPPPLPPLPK

This experiment addresses T1, CDK9/CycTI (Homo sapiens, UniProt P50750).
T1 construct: purchased Carna biosciences 04-110
In words: In vitro kinase assay (ADP-Glo Kinase Assay Kit), CDK9/CycTI. The experiment is classed as biochemical. Particulars: 30 ng CDK9/CycTI, 30 μM CDKtide, 10 μM ATP, 2 hours at room temperature; 8 to 10-point dose response (Tier2); read-out: IC50 Score. The procedure:
In vitro kinase assay was performed in white, 384-low volume plates in 5 μl reaction volume consisting of 30 ng CDK9/CycTI (Carna biosciences #04-110), 30 μM CDKtide (Signalchem #C06-58) and 10 μM ATP made in reaction buffer (40 mM Tris, pH 7.5; 20 mM MgCl2; 0.1 mg/ml BSA; 50 μM DTT) at 1 μM & 10 μM compound concentration for Tier1 assay and 8 to 10-point dose response curve for Tier2 assay. After 2 hours of incubation at room temperature, the amounts of […] in the kinase reaction were quantified using ADP-Glo™ Kinase Assay Kit (Promega #V9102). Briefly, 5 μl of ADP-Glo™ reagent was added to stop the kinase reaction and plate was incubated for 40 minutes at room temperature. Subsequently, 10 μl of Kinase Detection Reagent was added and luminescence was recorded after 30 minutes of incubation at room temperature.
The inhibition of kinase activity was determined relative to positive control (2% DMSO) and IC50 was calculated using GraphPad prism software (four parameter-variable slope equation).
One may read the IC50 as the concentration needed to halve the response being measured. As for `CN[C@@H]1CC[C@H](C(=O)Nc2nc3ccc4cc(F)ccc4c3s2)C1` [Compound 87, (1S,3R)—N-(7-fluoronaphtho[2,1-d]thiazol-2-yl)-3-(methylamino)cyclopentane-1-carboxamide], the IC50 is 1 to 100 nM.
As for `CC(C)(C)OC(=O)N1CC[C@@H](C(=O)Nc2nc3ccc4cc(F)ccc4c3s2)C1` [Compound 89], the IC50 lay in the range of 1000 to 20000 nM.
The same measure for `O=C(Nc1nc2ccc3cc(F)ccc3c2s1)C1CCNC1` (single isomer, unassigned) [Compound 37, N-(7-fluoronaphtho[2,1-d]thiazol-2-yl)pyrrolidine-3-carboxamide]: 1 to 100 nM.

(Values after patent publication US20220281863A1, “COMPOUNDS, COMPOSITIONS AND METHODS OF TREATING DISORDERS” (Reverie Labs, Inc., priority 2019, published 2022).)
